{"source": "paper PMC10874388", "about": "“Cyclic peptides discriminate BCL-2 and its clinical mutants from BCL-XL by engaging a single-residue discrepancy” (Nature Communications, 2024)", "assay_type_in_all_cases": "cell-based", "key": {"[1]": {"tested_on": "A549 cells overexpressing BCL-2 WT", "assay": "Cell viability assay, A549 stably overexpressing BCL-2 WT", "details": "A549 BCL2-WT, single wells", "procedure": "(§1) Cell viability was measured using CellTiter-Glo® 2.0 Reagent (Promega, G9242). […] After different inhibitors were added into serum-free medium and cultured for 4 h (RS4:11 for 6 h), FBS were supplemented to 10% and then incubated totally for 24 h or 48 h. Finally, the IC50 values were calculated based on measurements using a microplate reader (Thermo, Varioskan LUX). Statistical analysis was performed using software GraphPad Prism 7.0.\n(§2) Lentivirus packaging vectors pMDLg/pRRE, pRSV-Rev, and pVSV-G were obtained from Prof. Han Jiahuai’s lab (Xiamen University). Lentiviruses were produced using 3rd-generation lentivirus packaging plasmids transiently transfected into HEK293T cells with the constructs of interest using 0.25 M CaCl2. Media was changed after 16 h, and supernatants containing infectious virus particles were harvested 24 h later. A second viral harvest was made following a further 24 h incubation with fresh media. Virus containing supernatant was filtered through a […], and stored at 4 °C or −80 °C until being used. Typically, A549 cells were seeded into 10 cm cell culture dishes at 4 ~ 8 × 10^5 cells/cm^2. An equivalent volume of virus containing culture medium was added along with polybrene (Sigma) to a final concentration of 10 µg/mL. Cells were incubated at 37 °C for 20 h, before they were washed and resuspended in fresh culture media. The expression level of BCL-2 was measured by qPCR and western blot methods."}, "[2]": {"tested_on": "A549 cells overexpressing BCL-2 G101V", "assay": "Cell viability assay, A549 stably overexpressing BCL-2 G101V", "details": "A549 BCL2/G101V, single wells", "procedure": "as §1, §2"}, "A549 cells (control)": {"tested_on": "A549 cells (control)", "assay": "Cell viability assay (CellTiter-Glo), normal A549 (control)", "details": "for raw luminescence reading / control inhibiton rate: A549 control, single wells", "procedure": "The cell lines Jurkat (TIB-152), El4 (TIB-39), Daudi (ccl-213), RS4:11 (crl-1873), A549 (ccl-185), HepG2 (hb-8065) and PANC-1 (crl-1469) were purchased from ATCC (American Type Culture Collection), and MGC-803 (C6582) was purchased from Beyotime (https://www.beyotime.com/product/C6582.htm). […] Daudi and RS4:11 cells were cultured in RPMI-1640 medium (HyClone, SH30809.01) and 10% FBS (Gibco, 10099-141), whereas HepG2, MGC-803 and PANC-1 cells were cultured in MDEM (HyClone, SH30243.01). Cells were maintained at 37 °C under a humidified, 5% (v/v) CO2-containing atmosphere.\nas §1"}, "RS4:11 cells": {"tested_on": "RS4:11 cells", "assay": "Cell viability assay (CellTiter-Glo), RS4:11", "details": "for raw luminescence reading / inhibition rate: RS4:11, single wells", "summary_of_the_method": "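Compounds added in serum-free medium for 4 h (RS4:11: 6 h), then FBS brought to 10% and incubation continued to 24 h or 48 h total at 37 °C, 5% CO2. Viability by CellTiter-Glo 2.0 luminescence; IC50 calculated.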"}}, "note": "Several values for one entry are separate records, joined by “and”; a condition that tells them apart may be missing. Equal entries are not always repeated.", "data": [{"smiles": "O=C(c1cc(-c2cc3c(cc2C(=O)N2Cc4ccccc4C[C@H]2CN2CCOCC2)OCO3)n2c1CCCC2)N(c1ccccc1)c1ccc(O)cc1", "note": "[S55746]", "values": [{"measurement": "BCL2-WT inhibition rate", "setting": "[1]; 3.125 uM", "result": "2.61% and 4.22% and -4.33% and 4% and -2.32%"}, {"measurement": "raw luminescence reading", "setting": "[1]; 3.125 uM", "result": "861200 and 847000 and 922600 and 850300 and 904800 and 882000"}, {"measurement": "BCL2-WT inhibition rate", "setting": "[1]; 6.25 uM", "result": "12% and 11% and 10% and 8% and 15%"}, {"measurement": "raw luminescence reading", "setting": "[1]; 6.25 uM", "result": "774200 and 789000 and 799200 and 813400 and 753900 and 827800"}, {"measurement": "BCL2-WT inhibition rate", "setting": "[1]; 12.5 uM", "result": "25% and 23% and 22% and 26%"}, {"measurement": "raw luminescence reading", "setting": "[1]; 12.5 uM", "result": "665800 and 680900 and 679300 and 687300 and 653500 and 700500"}, {"measurement": "BCL2-WT inhibition rate", "setting": "[1]; 25 uM", "result": "32% and 31%"}, {"measurement": "raw luminescence reading", "setting": "[1]; 25 uM", "result": "602600 and 612300 and 599000 and 609600 and 600600 and 625900"}, {"measurement": "BCL2-WT inhibition rate", "setting": "[1]; 50 uM", "result": 45, "unit": "%"}, {"measurement": "raw luminescence reading", "setting": "[1]; 50 uM", "result": "489600 and 486500 and 483800 and 490200 and 490400 and 500400"}, {"measurement": "BCL2-WT inhibition rate", "setting": "[1]; 100 uM", "result": "51% and 50%"}, {"measurement": "raw luminescence reading", "setting": "[1]; 100 uM", "result": "433600 and 432600 and 430000 and 431900 and 437900 and 439800"}, {"measurement": "BCL2-WT inhibition rate", "setting": "[1]; 200 uM", "result": "51% and 53% and 52% and 50%"}, {"measurement": "raw luminescence reading", "setting": "[1]; 200 uM", "result": "434700 and 435900 and 419200 and 420100 and 446100 and 441200"}, {"measurement": "BCL2/G101V inhibiton rate", "setting": "[2]; 3.125 uM", "result": "8% and 4.44% and 2.43% and 0.638% and 1% and 2%"}, {"measurement": "raw luminescence reading", "setting": "[2]; 3.125 uM", "result": "671600 and 698900 and 713600 and 726700 and 723800 and 716000"}, {"measurement": "BCL2/G101V inhibiton rate", "setting": "[2]; 6.25 uM", "result": "13% and 10% and 7.56% and 8% and 9%"}, {"measurement": "raw luminescence reading", "setting": "[2]; 6.25 uM", "result": "633100 and 639000 and 656800 and 676100 and 673100 and 668300"}, {"measurement": "BCL2/G101V inhibiton rate", "setting": "[2]; 12.5 uM", "result": "26% and 24% and 22% and 23% and 21%"}, {"measurement": "raw luminescence reading", "setting": "[2]; 12.5 uM", "result": "539700 and 558400 and 568300 and 571800 and 566400 and 579500"}, {"measurement": "BCL2/G101V inhibiton rate", "setting": "[2]; 25 uM", "result": "24% and 23% and 22% and 21%"}, {"measurement": "raw luminescence reading", "setting": "[2]; 25 uM", "result": "553400 and 560600 and 571800 and 579800 and 580700 and 578200"}, {"measurement": "BCL2/G101V inhibiton rate", "setting": "[2]; 50 uM", "result": "39% and 38% and 36% and 35% and 34%"}, {"measurement": "raw luminescence reading", "setting": "[2]; 50 uM", "result": "444500 and 453000 and 466400 and 464700 and 472100 and 479600"}, {"measurement": "BCL2/G101V inhibiton rate", "setting": "[2]; 100 uM", "result": "46% and 45% and 42%"}, {"measurement": "raw luminescence reading", "setting": "[2]; 100 uM", "result": "392800 and 395900 and 399700 and 397700 and 405800 and 422300"}, {"measurement": "BCL2/G101V inhibiton rate", "setting": "[2]; 200 uM", "result": "48% and 49% and 45% and 44%"}, {"measurement": "raw luminescence reading", "setting": "[2]; 200 uM", "result": "382600 and 370800 and 376000 and 400600 and 410900"}, {"measurement": "IC50", "setting": "A549 cells (control); 48 h, CellTiter-Glo, n = 6, read-out: IC50 A549 control (original cells)", "result": "74.1 ± 4.5", "unit": "µM"}, {"measurement": "raw luminescence reading", "setting": "A549 cells (control); 3.125 uM", "result": "680400 and 663400 and 563700 and 629300 and 626800 and 613100"}, {"measurement": "raw luminescence reading", "setting": "A549 cells (control); 6.25 uM", "result": "624000 and 698000 and 600600 and 640100 and 681300 and 637500"}, {"measurement": "raw luminescence reading", "setting": "A549 cells (control); 12.5 uM", "result": "490700 and 564100 and 465600 and 496900 and 544400 and 512100"}, {"measurement": "control inhibiton rate", "setting": "A549 cells (control); 25 uM", "result": "29% and 19% and 33% and 30% and 20% and 28%"}, {"measurement": "raw luminescence reading", "setting": "A549 cells (control); 25 uM", "result": "465600 and 531000 and 436600 and 460300 and 522200 and 471500"}, {"measurement": "control inhibiton rate", "setting": "A549 cells (control); 50 uM", "result": "45% and 39% and 47% and 38% and 42%"}, {"measurement": "raw luminescence reading", "setting": "A549 cells (control); 50 uM", "result": "357700 and 400600 and 345700 and 358400 and 403100 and 379300"}, {"measurement": "control inhibiton rate", "setting": "A549 cells (control); 100 uM", "result": "58% and 52% and 57% and 50% and 55%"}, {"measurement": "raw luminescence reading", "setting": "A549 cells (control); 100 uM", "result": "277600 and 315100 and 274100 and 282200 and 324600 and 296100"}, {"measurement": "control inhibiton rate", "setting": "A549 cells (control); 200 uM", "result": "64% and 60% and 63% and 57% and 61%"}, {"measurement": "raw luminescence reading", "setting": "A549 cells (control); 200 uM", "result": "232800 and 260700 and 234900 and 239800 and 281200 and 257400"}, {"measurement": "IC50", "setting": "RS4:11 cells; 48 h treatment, CellTiter-Glo, small-molecule inhibitors, cells marked (nM)", "result": "4.5 ± 0.1", "unit": "nM"}, {"measurement": "raw luminescence reading", "setting": "RS4:11 cells; 2.44141 nM", "result": "232300 and 260200 and 275600 and 316000 and 308700 and 306800"}, {"measurement": "raw luminescence reading", "setting": "RS4:11 cells; 4.88281 nM", "result": "135300 and 123100 and 129200 and 110700 and 132100 and 115900"}, {"measurement": "inhibition rate", "setting": "RS4:11 cells; 4.88281 nM, 0.00488281 µM", "result": "53% and 57% and 55% and 61% and 54% and 59%"}, {"measurement": "raw luminescence reading", "setting": "RS4:11 cells; 9.76562 nM", "result": "75370 and 71000 and 72070 and 63170 and 68200 and 61260"}, {"measurement": "inhibition rate", "setting": "RS4:11 cells; 9.76562 nM, 0.00976562 µM", "result": "74% and 75% and 78% and 76% and 79%"}, {"measurement": "raw luminescence reading", "setting": "RS4:11 cells; 19.5312 nM", "result": "38320 and 36520 and 36660 and 31950 and 34870 and 31060"}, {"measurement": "inhibition rate", "setting": "RS4:11 cells; 19.5312 nM, 0.0195312 µM", "result": "87% and 89% and 88%"}, {"measurement": "raw luminescence reading", "setting": "RS4:11 cells; 39.0625 nM", "result": "14610 and 13790 and 14580 and 12190 and 12650 and 12610"}, {"measurement": "inhibition rate", "setting": "RS4:11 cells; 39.0625 nM, 0.0390625 µM", "result": "95% and 96%"}, {"measurement": "raw luminescence reading", "setting": "RS4:11 cells; 78.125 nM", "result": "4289 and 3678 and 4541 and 3543 and 3931 and 3419"}, {"measurement": "inhibition rate", "setting": "RS4:11 cells; 78.125 nM, 0.078125 µM", "result": "98% and 99%"}, {"measurement": "raw luminescence reading", "setting": "RS4:11 cells; 156.25 nM", "result": "1268 and 1101 and 1335 and 1644 and 1000 and 916.1"}, {"measurement": "inhibition rate", "setting": "RS4:11 cells; 156.25 nM, 0.15625 µM", "result": "100% and 99%"}, {"measurement": "inhibition rate", "setting": "RS4:11 cells; 312.5 nM", "result": 100, "unit": "%"}, {"measurement": "raw luminescence reading", "setting": "RS4:11 cells; 312.5 nM", "result": "809.8 and 810.5 and 948.9 and 960.0 and 1116 and 1097"}, {"measurement": "inhibition rate", "setting": "RS4:11 cells; 625 nM", "result": 99, "unit": "%"}, {"measurement": "raw luminescence reading", "setting": "RS4:11 cells; 625 nM", "result": "1448 and 1571 and 1720 and 1855 and 1831 and 2149"}, {"measurement": "inhibition rate", "setting": "RS4:11 cells; 1250 nM", "result": 100, "unit": "%"}, {"measurement": "raw luminescence reading", "setting": "RS4:11 cells; 1250 nM", "result": "256.4 and 322.1 and 360.1 and 295.0 and 378.2 and 348.9"}, {"measurement": "inhibition rate", "setting": "RS4:11 cells; 2500 nM", "result": 100, "unit": "%"}, {"measurement": "raw luminescence reading", "setting": "RS4:11 cells; 2500 nM", "result": "334.6 and 379.8 and 329.3 and 445.4 and 358.3 and 346.2"}, {"measurement": "inhibition rate", "setting": "RS4:11 cells; 5000 nM", "result": 100, "unit": "%"}, {"measurement": "inhibition rate", "setting": "RS4:11 cells; 10000 nM", "result": 100, "unit": "%"}, {"measurement": "raw luminescence reading", "setting": "RS4:11 cells; 10000 nM", "result": "297.6 and 210.5 and 312.1 and 264.1 and 325.8 and 327.8"}]}]}
